Measured values published in patent US11833185B2, “Anti-neurodegenerative therapeutic, method of manufacture, and use” (UNIVERSITY OF KENTUCKY RESEARCH FOUNDATION, priority 2017, dated 2023).
Where a SMILES comes first, the peptide text is derived from it.

Key:
[1] = Plasma levels by LC-MS/MS after subcutaneous administration; type: in vivo, rat; settings: 100 mg/kg s.c. in saline
MN9D neuronal cells [2] = test: LIVE/DEAD and JC-1 assays for toxicity and loss of mitochondrial potentials; settings: 100 nM, 1 and 3 hours post treatment
Description: (§1) Testing involved permutations of size and diversifying amino acid sequence at each residue position. Sequence design began with Proline-Proline-Glutamate-Alanine-Proline-Alanine-Glutamate-Aspartate-Arginine-Serine-Leucine-NH2. […] These properties were tested using the dopaminergic MN9D neuronal cell line. Each candidate peptide sequence was dissolved in citrate buffer and added to MN9D cells (Choi et al., 1992) that were cultured in Dulbecco's Modified Eagle's Medium [DMEM (containing pyridoxol HCl); Sigma, St. Louis, MO] supplemented with 10% Fetal Bovine serum (HyClone, Logan, UT), 50 U/ml penicillin and streptomycin to a final 100 nM concentration. Using LIVE/DEAD and JC-1 assays in MN9D neuronal cells, individual library sequences were measured for toxicity and loss of mitochondrial potentials at 1 and 3 hours post treatment. […] The remaining sequences were then tested for their ability to provide protection against neurotoxins rotenone, 1-methyl-4-phenylpyridinium (MPP+), and trichloromethyl-1,2,3,4-tetrahydro-β-carboline (TaClo).

MN9D neuronal cells [3] = test: Protection of mitochondrial potentials against rotenone, MPP+ and TaClo-induced cytotoxicity; type: cell-based; settings: 100 nM pretreatment, 1, 3, 12, 24 hours
Description: as §1

[4] = rat, in vivo, sc, 100 mg/kg
[5] = rat, in vivo, sc
depression = settings: person, intranasal spray 50 mg daily for 270 days
Description: A person presents with the diagnosis of depression. They are administered peptide by intranasal spray at a dosage of 50 mg daily for 270 days. At 1, 90, 180, 270 and 360 days they are tested/retested with a battery of mental status tests including Hamilton Depression Scale (HAMD), Mini Mental Status Exam (MMSE), Beck Depression Index (BDI), Montgomery-Asberg Depression Rating Scale (MADRS), Clinical Global Impression Scale (CGI), Patient Global Impression Scale (PGI), Structural Clinical Interview for Diagnostic and Statistic Manual of Mental Disorders IV (SCID).

Compound | total lifetime in plasma [1] [min] | Cmax ([1]; rat, plasma, sc, read-out: maximum plasma level) [ng/mL] | Tmax ([1]; rat, plasma, sc, read-out: time of maximum plasma level post administration (converted)) [min] | toxicity (MN9D neuronal cells [2]) | protection against neurotoxins (rotenone, MPP+, TaClo) (MN9D neuronal cells [3]) | half-life [4] [min] | improved CNS bioavailability compared to AV6403 [5] | HAMD from day 1 over 360 days (depression)
C[C@H](NC(=O)[C@@H]1CCCN1C(=O)[C@H](C)NC(=O)[C@@H](N)CCC(=O)O)C(=O)N[C@@H](CCC(=O)O)C(N)=O [AV2157, Glutamate-Alanine-Proline-Alanine-Glutamate-NH2] (H-EAPAE-NH2; N-terminus assumed) | ~120 | 1250 | 20 | low toxicity | protection against neurotoxin exposure at all time points measured | 50 to 60 | over 10 times | –
Ac-Leucine-D-Methionine-Proline-Alanine-deuterated Serine-Phenylalanine [SEQ ID NO: 9] | – | – | – | – | – | – | – | improvement in HAMD
